Where two headings read alike, the source gives them in different places.
How the values were obtained:
T2MycNick cells = test: Testing compounds for their ability of restoring contact inhibition (vacuolation, cell density); type: cell-based, murine; settings: for vacuolation (in words): compound alone, up to 10 μM; for minimal effective concentration: T2MycNick cells grown beyond confluence, 7-14 days
Method: Exponentially growing MycNick cells were passaged into 24-well plates at a final confluence of 90% and were allowed to attach for 48 hours before being exposed to a cortisol analog in the presence or absence of a calcineurin inhibitor. After the initiation of treatment, the cells were allowed to grow beyond confluence for 7 days before being subjected to morphological analysis and cell density. An inverted tissue culture microscope (Leica) was used to document vacuoles in live cells. Cell density was evaluated under an EVOS FL Auto microscope (Thermo Fisher) after fixation of the treated cells with 4% paraformaldehyde (PFA) in the presence of detergent 0.5% Triton X-100 and subsequently staining of DNA with 5 μg/ml of Propidium Iodide (PI) in the presence of 5 μg/ml of Ribonuclease A from bovine pancreas (RNase A) (Sigma, Cat. # R6513-50MG).
Exponentially growing murine cells expressing Myc-Nick (T2MycNick cells) were passaged into 24-well plates at a final confluence of 20% and were allowed to attach overnight before being exposed to a test compound at a concentration of 10 μM. […] The cells were subjected to daily analysis of viability and morphology under an inverted tissue culture microscope or GE InCell Analyzer 2000. Cell density was documented after staining of DNA with PI 7-10 days after the initiation of treatment.

MycNick cells = test: Combination treatment with Hydrocortisone: modulation of HC-induced vacuolation, cell density reduction and CIR effect; type: cell-based, murine; settings: for sensitization to induction of vacuolation elicited by Hydrocortisone: 10 days, FIG. 16: Cyclosporin A […], Hydrocortisone 0.3 μM; for Cell density reduction by Hydrocortisone / Vacuolation by Hydrocortisone: Combination treatment with Hydrocortisone for 7 days; for HC-triggered vacuolation in presence of the compound: added to HC
Method: Exponentially growing MycNick cells were passaged into 24-well plates at a final confluence of 90% and were allowed to attach for 48 hours before being exposed to a cortisol analog in the presence or absence of a calcineurin inhibitor. […] An inverted tissue culture microscope (Leica) was used to document vacuoles in live cells. Cell density was evaluated under an EVOS FL Auto microscope (Thermo Fisher) after fixation of the treated cells with 4% paraformaldehyde (PFA) in the presence of detergent 0.5% Triton X-100 and subsequently staining of DNA with 5 μg/ml of Propidium Iodide (PI) in the presence of 5 μg/ml of Ribonuclease A from bovine pancreas (RNase A) (Sigma, Cat. # R6513-50MG).
The threshold concentration that was used to elicit no less than 50% of reduction in the cell density was determined. So was the minimal effective concentration that could induce vacuolation to an extent that covered no less than 10% of a random field documented under a bright field microscope. Quantification of the area with vacuolation, multilayer zones or multilayer zones was performed with the Image J software. More than 10 random fields were chosen for quantification for each data point in each of two independent experiments.
A chemical library for enhancers of the CIR effect of HC in MycNick cells was screened.

[1] = Mus musculus, PI staining, read-out: Conc that reduces > 50% in the cell density
[2] = Mus musculus, vacuolation covering no less than 10% of a random field, read-out: Min. effective conc. that elicits vacuolation
[3] = PI staining, read-out: Conc that reduces > 50% in the cell density
[4] = vacuolation covering no less than 10% of a random field, read-out: Min. effective conc. that elicits vacuolation

CC[C@@H]1/C=C(\C)C[C@H](C)C[C@H](OC)[C@H]2O[C@@](O)(C(=O)C(=O)N3CCCC[C@H]3C(=O)O[C@H](/C(C)=C/[C@@H]3CC[C@@H](O)[C@H](OC)C3)[C@H](C)[C@@H](O)CC1=O)[C@H](C)C[C@@H]2OC [CI034, Ascomycin]
vacuolation (in words) (T2MycNick cells): did not elicit vacuolation
sensitization to induction of vacuolation elicited by Hydrocortisone (MycNick cells): sensitizes
Cell density reduction by Hydrocortisone (MycNick cells): Enhanced
Vacuolation by Hydrocortisone (MycNick cells): Enhanced

CC[C@@H]1/C=C(\C)C[C@H](C)C[C@H](OC)[C@H]2O[C@@](O)(C(=O)C(=O)N3CCCC[C@H]3C(=O)O[C@H](/C(C)=C/[C@@H]3CC[C@H](Cl)[C@H](OC)C3)[C@H](C)[C@@H](O)CC1=O)[C@H](C)C[C@@H]2OC [CI040, Pimecrolimus]
vacuolation (in words) (T2MycNick cells): did not elicit vacuolation
sensitization to induction of vacuolation elicited by Hydrocortisone (MycNick cells): sensitizes
Cell density reduction by Hydrocortisone (MycNick cells): Enhanced
Vacuolation by Hydrocortisone (MycNick cells): Enhanced

CC(=O)[C@@]1(O)CC[C@H]2[C@@H]3C[C@H](C)C4=CC(=O)C=C[C@]4(C)[C@@]3(F)[C@@H](O)C[C@@]21C [CI043, Fluorometholone]
minimal effective concentration (T2MycNick cells; [1]): 2.5 µM
minimal effective concentration (T2MycNick cells; [2]): 0.625 µM

C=CC[C@@H]1/C=C(\C)C[C@H](C)C[C@H](OC)[C@H]2O[C@@](O)(C(=O)C(=O)N3CCCC[C@H]3C(=O)O[C@H](/C(C)=C/[C@@H]3CC[C@@H](O)[C@H](OC)C3)[C@H](C)[C@@H](O)CC1=O)[C@H](C)C[C@@H]2OC [CI046, Tacrolimus]
vacuolation (in words) (T2MycNick cells): did not elicit vacuolation
sensitization to induction of vacuolation elicited by Hydrocortisone (MycNick cells): sensitizes
Cell density reduction by Hydrocortisone (MycNick cells): Enhanced
Vacuolation by Hydrocortisone (MycNick cells): Enhanced

C[C@]12C=CC(=O)C=C1CC[C@H]1[C@@H]3C[C@@H](O)[C@](O)(C(=O)CO)[C@@]3(C)C[C@H](O)[C@@]12F [CI047, Triamcinolone]
minimal effective concentration (T2MycNick cells; [1]): 2.5 µM
minimal effective concentration (T2MycNick cells; [2]): 0.625 µM

CC(=O)OCC(=O)[C@@]12OC(C)(C)O[C@@H]1C[C@H]1[C@@H]3C[C@H](F)C4=CC(=O)C=C[C@]4(C)[C@@]3(F)[C@@H](O)C[C@@]12C [CI048, Fluocinonide]
minimal effective concentration (T2MycNick cells; [1]): 2.5 µM
minimal effective concentration (T2MycNick cells; [2]): 0.625 µM

C[C@]12CCC(=O)C=C1CC[C@@H]1[C@@H]2CC[C@@]2(C)[C@H]1CC[C@]2(O)C(=O)CO [CI049, Cortodoxone]
minimal effective concentration (T2MycNick cells; [1]): 10 µM
minimal effective concentration (T2MycNick cells; [2]): 5 µM

CC(=O)OCC(=O)[C@@]1(O)CC[C@H]2[C@@H]3CCC4=CC(=O)CC[C@]4(C)[C@H]3[C@@H](O)C[C@@]21C [HC003, Hydrocortisone 21-acetate]
minimal effective concentration (T2MycNick cells; [3]): 2 µM
minimal effective concentration (T2MycNick cells; [4]): >10 µM

CCCC(=O)O[C@]1(C(=O)CO)CC[C@H]2[C@@H]3CCC4=CC(=O)CC[C@]4(C)[C@H]3[C@@H](O)C[C@@]21C [HC004, Hydrocortisone 17-Butyrate]
minimal effective concentration (T2MycNick cells; [3]): 10 µM
minimal effective concentration (T2MycNick cells; [4]): >10 µM

CC(=O)OCC(=O)[C@@]1(O)[C@H](C)C[C@H]2[C@@H]3CCC4=CC(=O)C=C[C@]4(C)[C@@]3(F)[C@@H](O)C[C@@]21C [HC005, Dexamethasone 21-acetate]
minimal effective concentration (T2MycNick cells; [3]): 10 µM
minimal effective concentration (T2MycNick cells; [4]): >10 µM

CC#C[C@]1(O)CC[C@H]2[C@@H]3CCC4=CC(=O)CCC4=C3[C@@H](c3ccc(N(C)C)cc3)C[C@@]21C [Mifepristone]
contact inhibition restoration (CIR) activity (T2MycNick cells; high-density cells): failed to elicit
CIR effect of HC in presence of antagonist (MycNick cells; 5 μM of Mifepristone): completely blocked

Cn1c(=O)cc(N2CCC[C@@H](N)C2)n(Cc2ccccc2C#N)c1=O [alogliptin]
HC-triggered vacuolation in presence of the compound (MycNick cells): failed to inhibit

CC#CCn1c(N2CCC[C@@H](N)C2)nc2c1c(=O)n(Cc1nc(C)c3ccccc3n1)c(=O)n2C [linagliptin]
HC-triggered vacuolation in presence of the compound (MycNick cells): failed to inhibit

Source: patent publication US20240100068A1, “METHODS COMPRISING ADMINISTRATION OF A GLUCOCORTICOID RECEPTOR AGONIST AND AN INHIBITOR OF CALCINEURIN” (Chengdu Anticancer Bioscience, Ltd., priority 2022, published 2024)
